The values below come from patent publication EP4732839A1, “USE OF COMPOUND IN TREATMENT OF LIVER DISEASES” (priority 2023, dated 2025).

pIC50: −log10 of the molar value.

The nature of data set [1]: Liver tissue distribution after single intragastric administration. As to conditions: for Mean drug concentration (liver) / Mean drug concentration (plasma) / AUC(0-t) at 24 h: 10 mg/kg single intragastric, ICR mice; for AUC(0-t) at 24 h: in vivo, area under curve at 24 h post-dose. Here is the method: The specific regimen was as follows: Before administration, the state of the formulation for administration was inspected, and the homogeneity of the formulation was ensured by vortexing, stirring, or shaking. The theoretical dose for each mouse was calculated according to the following formula. The actual dose for each ICR mouse and the collection time for plasma and tissue samples were required to be recorded in detail in corresponding tables. Theoretical administration volume (mL) = ((Dose(mg⋅kg^−1))/(Concentration of test solution (mg⋅((mL))^−1))) × Animal body weight (kg) [formula]
Plasma sample collection: At each designated time point, about 100 µL of blood was collected from the orbit, and the collected whole blood was placed in an EDTA-K2 anticoagulation tube, inverted several times to mix thoroughly, stored on wet ice, and centrifuged (at 1500 g to 1600 g) for 10 min within 30 min to separate the plasma. The resulting plasma sample was stored at -40 °C to -20 °C for biological sample analysis.
The specific procedures for liver tissue collection were as follows: Liver tissues were collected immediately after whole blood collection. The liver tissues were collected, washed with ice-cold normal saline, dehydrated, weighed, and homogenized in 20% methanol-water at a ratio of 1:5 (w/v). The collection time of tissues and the weight of homogenized tissues were required to be recorded in detail in corresponding tables.
The plasma and various tissue homogenates were stored in a refrigerator at -40 °C to -20 °C for sample analysis. After the experiment was completed, the mice were euthanized by carbon dioxide asphyxiation or cervical dislocation. After the analysis was completed, the samples were returned to the biological sample room, and transferred to an environment at -40 °C to -20 °C for storage according to SOP-SM-001.
The corresponding pharmacokinetic parameters of plasma and liver tissues were calculated using a non-compartmental model in Phoenix WinNonlin 8.0 or later versions, and the area under curve AUC0-t (AUC0-t, the area under the concentration-time curve at 24 h post-dose) was calculated. The liver/plasma drug distribution ratio (RL/P) was then calculated.

Data set [2] relates to Peripheral blood mononuclear cells (hPBMCs). As to the kind of experiment: Cytokine secretion after stimulation of PBMCs. The note with it: hPBMCs from 3 donors, 24 h of stimulation.
Data set [3] has as its system hepatitis B virus (HBV). Kind of data set: Anti-hepatitis B virus activity in HBV-infected primary human hepatocytes. The data set is classed as cell-based, HBV type B. As to conditions: HBV-infected PHHs, agonist-treated PBMC supernatant (donor 1) or reference compound. The protocol: The culture supernatant from one donor (donor 1) was selected to stimulate HBV-infected primary hepatocytes (PHHs), and interferon α and nucleoside analog entecavir (ETV) were selected as positive controls. The experimental procedures were as follows (FIG. 14a), and the detailed procedures were as follows: On day -1, cryopreserved PHHs were thawed and adjusted to a density of 6 × 10^5 cells/mL, and the PHHs were seeded into a 48-well plate at 0.22 mL/well.
On day 0, the PHHs were infected with HBV type B at 600 GE/cells.
On day 1, the culture medium was replaced with a fresh one, and reference compounds ETV and Peg-IFN-α2a (Pegasys-Roche) were added to the cells to treat the cells. The reference compounds ETV and Peg-IFN-α2a for the PHHs were each prepared at one concentration, with three replicate wells.
The PBMC supernatants were each prepared at 4 test concentrations, diluted at a ratio of 1:4, and then added to the cells. Three replicate wells were made for each test condition. The culture medium was replaced with a fresh culture medium containing the PBMC supernatants and the reference compounds on days 5, 7, 9, and 11. On day 13, the cell supernatants were collected and the cell viability was detected using CCK-8.
The content of HBV DNA in the supernatants was determined by qPCR according to the kit instructions. HBsAg and HBeAg levels in the supernatants were determined by ELISA.

In data set [4] the test system is advanced unresectable HCC. As to conditions: cited from earlier work.
Data set [5] concerns advanced hepatocellular carcinoma (aHCC). As to conditions: first-line aHCC; nivolumab 240 mg intravenous drip once every 2 weeks; sorafenib 400 mg oral twice daily; cited from earlier work.
Data set [6] deals with ISG15, ISG56, Mx1, and Oaslb. As to the kind of experiment: Liver safety: qPCR of interferon-related genes in liver tissue. The format is in vivo, C57BL/6J wild-type female mice. The note with it: dose of 3 mpk (pharmacodynamic dose). The protocol:
(§1) C57BL/6J wild-type female mice (6 weeks old) were randomly grouped. After administration at different doses, whole blood and liver tissues of the mice were separately collected at 1 h, 2 h, and 4 h for detection of a plurality of parameters to evaluate the effect of the drugs on the liver.
(§2) Liver tissues and blood were collected at 1 h, 2 h, and 4 h after single dosing.
(§3) The supernatant was collected and stored (-20 °C); • (3) IFN-α, IP-10, IL-6, and TNF-α were detected using an ELISA kit. • (C) Remaining liver tissue-HE staining and pathological evaluation. • (D) 1/2 blood (whole blood)-liver function parameter detection: AST (aspartate aminotransferase), ALT (alanine aminotransferase/glutamate pyruvate transaminase), ALP (alkaline phosphatase), ALB (albumin), and GGT (γ-glutamyl transferase). • (E) 1/2 blood-serum preparation-reserve for ELISA.

Data set [7] deals with hERG potassium channel (Homo sapiens, UniProt Q12809). Kind of data set: hERG whole-cell patch-clamp. The data set is classed as cell-based. From the text: The rapidly activated potassium channel encoded by human ether-a-go-go-related gene (hERG) is an important ion channel involved in the formation of cardiac action potential phase 3 repolarization. Drug-induced blockade of hERG channels can lead to delayed cardiac repolarization, manifested as QT interval prolongation on the electrocardiogram, known as long QT syndrome. Drug-induced delayed ventricular repolarization may, under certain circumstances, trigger fatal arrhythmias-torsade de pointes-type ventricular tachycardia. In this study, the whole-cell patch-clamp technique (the standard method for hERG safety assessment) was employed to evaluate the inhibitory effects of the small-molecule compounds on the hERG potassium channel and to assess the risk of ventricular repolarization toxicity.

The format of data set [8] is in vivo, C57BL/6J wild-type female mice. Here is the method: as §1, §2, §3
For data set [9], the system named is IFN-α, IP-10, IL-6, and TNF-α. Kind of data set: Liver safety: cytokine ELISA in liver tissue. The note with it: 1 h, 2 h, 4 h. The format is in vivo, C57BL/6J wild-type female mice. Here is the method:
as §1, §2, §3

A short description of data set [10]: in vitro. The note with it: human, microsomes, pH 7.4.
Description: The metabolic stability of the compounds in in vitro liver microsomes was evaluated. The procedures and steps were as follows: At 37 °C, 1 µM of the compounds was incubated in 1 mg/mL liver microsomes. The reaction system was a 0.1 M potassium phosphate buffer (pH 7.4) containing 3 mmol/L MgCl2 and 1 mmol/L NADPH. At the beginning of the reaction, the small molecules and the liver microsomes were pre-incubated at 37 °C for 10 min, and subsequently a cofactor NADPH was added to initiate the metabolic reaction. The reaction was quenched at 0 min, 5 min, 10 min, 20 min, 30 min, and 60 min using three volumes of ice-cold methanol containing an internal standard (200 nM labetalol). After incubation at room temperature for 10 min, the samples were centrifuged at 4000 rpm at 4 °C for 20 min, and the supernatants were collected, diluted with chromatography-grade purified water in a 1:1 ratio, and then subjected to quantitative analysis. […] After a 6-minute chromatographic separation on a C18 column (50 × 2.1 mm; 2.6 µm) under a gradient mobile phase of 0.1% formic acid in water, the peaks corresponding to specified ionic signals were detected. […] The detailed operation process was as follows: • 1) The compound working solution was added to all 96-well reaction plates (T0, T5, T10, T20, T30, and T60) at 10 µL/well, except the blank wells. • 2) The microsomal solution was added to all the reaction wells (T0, T5, T10, T20, T30, T60, and blank wells) at 80 µL/well. • 3) The plates were pre-incubated at 37 °C for 10 min. • 4) After pre-incubation, NADPH was added to each reaction plate at 10 µL/well to initiate the reaction. • 5) At the set end time point, a 4 °C methanol solution (containing an internal standard: 200 nM labetalol) was added to each reaction plate at 300 µL/well to quench the reaction. • 6) Each plate was sealed and shaken for 10 min. • 7) The mixture was shaken well and centrifuged at 4000 rpm at 4 °C for 20 min. • 8) 300 µL of the supernatant was collected, and HPLC-grade water was added at 300 µL/well. The mixture was well mixed and then subjected to LC-MS analysis.
The metabolic half-life (T1/2) and the metabolic clearance rate (CLint(mic)) (µL/min/mg) were calculated using a first-order kinetic equation.
Data set [11] has as its system Hep3B-luc. Kind of data set: Hep3B-luc liver orthotopic xenograft mouse model. As to conditions: Hep3B-luc liver orthotopic tumor model, 3 mg/kg.
The test system of data set [12] is H22-luc. The note with it: H22-luc orthotopic model, 3 mpk, IG.
Description: The cells were placed in an incubator at 37 °C with 5% CO2 and passaged every 1 to 2 days depending on the cell density.
The cell concentration (H22-luc, 2.0E8/mL) was adjusted, and the cells were mixed well with Matrigel at a ratio of 1:1. The mixture was placed on ice for subsequent injection experiments, and was mixed thoroughly by shaking with Vortex before use.
• (1) The mice were weighed before surgery and anesthetized by intraperitoneal injection of avertin at 0.15 mL/10 g body weight. […] The needle was inserted into the liver at a 30-degree angle relative to the liver surface. After the needle was inserted, the needle was made parallel to the tabletop and advanced in parallel for about 3 mm. 10 µL of H22-luc cell suspension was slowly injected, and a rapid whitening (white plaque) or turbid translucent vacuolation over most of the liver lobe in the injection area was observed. • (5) After injection, a cotton swab was used to apply slight pressure at the needle insertion site while the needle was slowly withdrawn. The cotton swab was removed until no bleeding was observed. • (6) The liver lobe was gently pushed back into the abdominal cavity, and the muscle layer and skin were sutured.
The experimental data were analyzed using Graphpad Prism 8. The experimental data were expressed as mean ± SD.
Data set [13] can be described thus: in vivo. The protocol:
C57BL/6 mice, 8 weeks old, female/male, 27, supplier: SPF (Beijing) Biotechnology Co., Ltd.
The body weight of the animals was measured and recorded daily.
All groups were subjected to clinical observations before administration and 1 to 2 h after administration, and additional observations were performed if necessary. Deaths and mortality were checked twice daily. The observations should include, but are not limited to, the following: fur condition, activity, mental status, vomiting, diarrhea, and abnormal secretions around the eyes. All animals should be observed on the day of necropsy, and any abnormal findings should be recorded.
The rectal temperature of all animals was measured and recorded at 0 h before administration and at 2 h, 4 h, 8 h and 24 h after administration.
The experiment was terminated on day 7 after administration. A gross necropsy was performed to examine abdominal and thoracic organs for lesions, and the spleen and liver were collected for weighing.

Where [14] appears, read: ICR, mouse, liver, oral, 10 mg/kg.
Setting [15] is: ICR, mouse, liver/plasma, oral, 10 mg/kg.
Setting [16] is: ICR, mouse, plasma, oral, 10 mg/kg.
Where [17] appears, read: C57BL/6 mice, single intragastric administration.

Sequence of hERG potassium channel (Q12809 whole entry): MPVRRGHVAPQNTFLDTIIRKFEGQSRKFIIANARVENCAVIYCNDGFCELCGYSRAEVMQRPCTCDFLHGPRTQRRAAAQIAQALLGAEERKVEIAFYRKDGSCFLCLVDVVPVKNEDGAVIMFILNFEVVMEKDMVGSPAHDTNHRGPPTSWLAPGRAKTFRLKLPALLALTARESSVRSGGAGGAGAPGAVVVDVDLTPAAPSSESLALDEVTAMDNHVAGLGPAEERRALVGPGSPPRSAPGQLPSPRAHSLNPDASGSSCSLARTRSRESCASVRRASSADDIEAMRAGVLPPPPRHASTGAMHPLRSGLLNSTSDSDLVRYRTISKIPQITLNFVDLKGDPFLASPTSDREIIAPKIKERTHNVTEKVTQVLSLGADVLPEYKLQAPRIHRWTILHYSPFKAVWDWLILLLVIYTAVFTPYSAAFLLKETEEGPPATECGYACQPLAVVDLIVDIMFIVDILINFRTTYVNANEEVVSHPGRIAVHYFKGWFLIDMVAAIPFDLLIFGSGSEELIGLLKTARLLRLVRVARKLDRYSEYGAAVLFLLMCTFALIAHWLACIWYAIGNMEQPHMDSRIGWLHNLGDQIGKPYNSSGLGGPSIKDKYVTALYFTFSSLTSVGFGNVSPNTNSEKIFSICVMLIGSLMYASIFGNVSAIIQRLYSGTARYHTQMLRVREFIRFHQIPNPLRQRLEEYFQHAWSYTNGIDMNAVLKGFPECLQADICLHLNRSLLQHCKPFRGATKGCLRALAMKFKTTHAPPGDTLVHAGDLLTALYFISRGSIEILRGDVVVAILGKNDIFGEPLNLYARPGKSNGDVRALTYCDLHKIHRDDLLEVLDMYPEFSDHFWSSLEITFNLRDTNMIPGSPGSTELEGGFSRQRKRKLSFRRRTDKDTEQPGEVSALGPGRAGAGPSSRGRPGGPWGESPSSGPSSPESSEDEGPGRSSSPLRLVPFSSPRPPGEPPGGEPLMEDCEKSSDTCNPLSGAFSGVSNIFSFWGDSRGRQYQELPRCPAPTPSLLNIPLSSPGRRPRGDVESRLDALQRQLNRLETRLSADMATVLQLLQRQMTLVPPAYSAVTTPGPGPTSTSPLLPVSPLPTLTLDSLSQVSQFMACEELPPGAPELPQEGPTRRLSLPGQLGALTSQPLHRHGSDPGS

As to `CCCC[C@](C)(CO)Nc1nc(N)nc2cc(F)cnc12` [GS-9688, reference compound], in data set [1] (24h), the “Mean drug concentration (liver)” value is on record as “BLOQ” and the “Mean drug concentration (plasma)” value is “BLOQ”. In data set [1] (setting [14]), this compound gave a concentration at 0.25 h of 907 ng/g, a concentration at 1 h of 224 ng/g and a concentration at 4 h of 207 ng/g. The AUC(0-t) in data set [1] (ICR, mouse, liver, po, 10 mg/kg) turned out to be 1.18 µg·h/mL. In data set [1] (setting [15]), this compound displayed a Kp of 3.5, a Kp at 0.25 h of 2.49, a Kp at 1 h of 3.16 and a Kp at 4 h of 15. In addition, the Kp in data set [1] (ICR, mouse, liver/plasma, po, 10 mg/kg) was 3.5. In [1] (setting [16]), this compound displayed a concentration at 0.25 h of 0.364 µg/mL, a concentration at 1 h of 0.0709 µg/mL and a concentration at 4 h of 0.0138 µg/mL. This compound showed an AUC(0-t) in data set [1] (ICR, mouse, plasma, po, 10 mg/kg) of 0.336 µg·h/mL. In addition, the IFN-α stimulating activity result in data set [2] is given as “essentially failed to activate IFN-α”.
For `C=C1[C@H](CO)[C@@H](O)C[C@@H]1n1cnc2c(=O)[nH]c(N)nc21` [ETV, entecavir, reference compound], the “levels of surface antigens HBeAg and HBsAg” value in data set [3] (supernatant ELISA day 13) was “did not reduce”. The “level of HBV DNA” value in data set [3] (supernatant qPCR day 13) is recorded as “significantly inhibited”.
On to `CNC(=O)c1cc(Oc2ccc(NC(=O)Nc3ccc(Cl)c(C(F)(F)F)c3)cc2)ccn1` [sorafenib], for which, in data set [4] (patients with advanced unresectable HCC (N = 602), placebo 7.9 months), the median survival is 10.7 months. Besides, in [4] (placebo 84 days), the progression-free survival is given as 167 days. For the same compound, in [5], the ORR was 7% and the mOS is reported as 14.7 months.
As for `COCCNc1nc(N)nc2ccc(Cc3ccc(CN(C)C)cc3)nc12` [Compound I], in [6], the “mRNA expression level of interferon-related genes” value was “significantly induced an increase”. Also, in [7], the pIC50 is 4.76. Besides, the ALB level result in data set [8] (10 mpk group at 2 h) was “significantly lower than that of the control group”. For the same compound, in [8] (all administration groups, no statistically significant differences), the AST levels entry is on record as “exceeded the normal reference range”. Moreover, in data set [8] (all dose groups), the ALP levels entry is “within the normal reference value range” and the GGT levels entry was “within the normal reference value range”. Besides, the “ALT elevation by clinical adverse reaction grading” value in data set [8] (single administration, Grade 1 AE = ALT exceeding three times the normal value) is given as “did not result in ALT elevation to grade 1 AE”. Moreover, the ALT entry in [8] (whole blood, 3/10/20 mpk i.g. single dose, 1 h, 2 h, 4 h) is “increased in all groups”. Further, in data set [1] (0.25h), the “Mean drug concentration (liver)” value was determined as 3416 ng/g and the “Mean drug concentration (plasma)” value is 0.0454 µg/mL. In data set [1] (1 h), the “Mean drug concentration (liver)” value was found to be 2340 ng/g and the “Mean drug concentration (plasma)” value came out at 0.0259 µg/mL. Further, in data set [1] (4h), the “Mean drug concentration (liver)” value is recorded as 263 ng/g and the “Mean drug concentration (plasma)” value amounted to 0.0107 µg/mL. Moreover, in data set [1] (24h), the “Mean drug concentration (liver)” value worked out at 35.6 ng/g and the “Mean drug concentration (plasma)” value amounted to 0.00149 µg/mL. This compound had an AUC(0-t) at 24 h in data set [1] (mouse, po, 10 mg/kg, AUC0-t (liver)) of 9.48 µg·h/mL. Also, the AUC(0-t) at 24 h in data set [1] (mouse, po, 10 mg/kg, AUC0-t (plasma)) is 0.206 µg·h/mL. Also, in data set [9] (3 mpk i.g. single dose), the “expression level of IP-10” value was “increased first, then decreased, and then increased from 1 h to 4 h”; the “expression levels of IL-6, TNF-α, and IFN-α” value is “decreased from 1 h to 4 h”. Also, in [9] (10 mpk i.g. single dose), the “expression level of IP-10” value is “peaked at 2 h and decreased at 4 h”; the “expression levels of IL-6, TNF-α, and IFN-α” value is “increased from 1 h to 4 h”. Moreover, the “expression levels of IL-6, TNF-α, IFN-α, and IP-10” value in data set [9] (20 mpk i.g. single dose) is “peaked at 2 h, and decreased at 4 h”. In data set [10], this compound had a half-life at 1 µM of 1.7 h and a microsomal CLint at 1 µM of 13.7 µL/min/mg. Besides, the “maximum body weight loss” value in data set [11] turned out to be 8.0%. For the same compound, the mouse death result in data set [12] (QW × 3) is listed as “One mouse in the compound I group died from ascites on day 20”. Also, in data set [12] (QW × 3, BLI 21 days post-dose, P < 0.0001), the TGI came to 87.0%. Besides, the Gross necropsy entry in data set [13] (10 mg/kg, group 1, male animal No. 46) is on record as “enlarged spleen”. In addition, in data set [13] (10 mg/kg, group 1, male animal No. 46, day 2), the Cage-side observation entry is “mild hunched posture”. Further, the Gross necropsy entry in data set [13] (40 mg/kg, group 4, female animal No. 2) is recorded as “enlarged spleen”. Moreover, the rectal temperature entry in [13] (2 h after treatment, significant difference vs vehicle group, returned to normal 4 h, 8 h and 24 h) was “decreased”. For the same compound, in data set [13] (setting [17]), the “Adverse reactions at maximum tolerated dose/probability” value is on record as “No”, the “Weight loss at maximum tolerated dose: whether recovered” value is on record as “Yes”, the “Weight loss rate at maximum tolerated dose” value is 12.5% and the “With or without mouse death” value is on record as “No”. The spleen weight result in data set [13] (female animals, 30 mg/kg, compared with vehicle group) is reported as “significantly increased”. Further, in [13] (male and female animals, 10-40 mg/kg single administration, began to recover from day 3 to day 7), the body weight entry was “decreased after the single administration”. For the same compound, the MTD at 168 h in [13] (mouse, in vivo, po) was found to be 40 mg/kg.
